Where a name gives a salt, the structure may show the parent alone. Read-outs that look alike come from different tables or passages of the source.
How the values were obtained:
[1] = biological target: T1, human D4 receptor (D4.2 sub-type) (Homo sapiens, UniProt P21917, DEL265-296); test: D4 receptor binding assay (3H-spiperone displacement); conditions: for Ki: 3H-spiperone 0.25 nM, membranes of HEK 298 cells with human D4.2, Cheng-Prusoff from IC50, read-out: D4 RBA Ki; for inhibition at 1 µM: 1 μM test compound, inhibition of 3H-spiperone binding, read-out: D4 RBA % Inhib. @ 1 μM
T1 construct: expressed in transfected cells
T1 sequence (P21917 with tags, fused parts or gaps DEL265-296): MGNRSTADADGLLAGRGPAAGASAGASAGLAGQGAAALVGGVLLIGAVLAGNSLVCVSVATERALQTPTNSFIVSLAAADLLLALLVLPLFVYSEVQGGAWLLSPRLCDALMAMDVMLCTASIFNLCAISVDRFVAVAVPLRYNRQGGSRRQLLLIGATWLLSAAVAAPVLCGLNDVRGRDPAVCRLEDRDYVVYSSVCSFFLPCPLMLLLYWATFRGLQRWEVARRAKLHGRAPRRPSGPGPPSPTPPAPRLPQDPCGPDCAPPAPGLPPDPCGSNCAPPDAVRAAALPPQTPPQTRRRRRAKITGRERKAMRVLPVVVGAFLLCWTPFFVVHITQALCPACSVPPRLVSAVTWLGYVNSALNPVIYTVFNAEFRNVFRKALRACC
Protocol: D4 receptor-binding affinities of the compounds were evaluated according to their ability to reduce binding of ^3H-spiperone as compared to the reference compound clozapine. The potency of the test compound to reduce ^3H-spiperone binding directly correlated to its binding affinity for the receptor.
[…] (human embryonic kidney) cells stably transfected with human D4 receptor (D4.2 sub-type) were grown in NUNC cell factories for 5 days (75% confluency) without a media change and removed with versene (approximately 19 mg of cells per cell factory tray). The cells were then centrifuged in a Sorval centrifuge for 10 min, 5000 rpm (GS3 rotor) and the pellets quickly frozen in liquid nitrogen and stored at −80° C. until used in binding assay. When used in the assay, cells were thawed on ice for 20 min and then 10 mL of incubation buffer (50 mM Tris, 1 mM EDTA, 4 mM MgCl2, 5 mM KCl, 1.5 mM CaCl2, 120 mM NaCl, pH 7.4) was added. The cells were then vortexed to resuspend pellet and homogenized with a Kinematica, CH-6010 Kriens-LU, homogenizer for 15 seconds at setting 7. Concentration of receptor protein was determined using the Pierce BCA assay.
The incubation was started by the addition of 100 μl (50 μg protein) membrane homogenate to a solution of 300 μl incubation buffer and 100 μl (0.25 nM final conc.) ^3H-spiperone (90 Ci/mmol, Amersham, diluted in borosilicate glass vial) in 96-well polypropylene plates (1 mL per well). The plates were vortexed and incubated at room temperature for 90 minutes. The binding reaction was stopped by filtering using a Packard Harvester. The samples were filtered under vacuum over glass fibre filter plates (Whatman GF/B) presoaked for 2 hours in 0.3% polyethylenimine (PEI) in 50 mM Tris buffer (pH 7.4). The filters were then washed 6 times with 7 mL ice cold 50 mM Tris buffer (pH 7.4). The filter plates were dried overnight and 35 μl of Microscint-O (Packard) was added. The plates were sealed and counted in the Packard Top Count (3 minutes per well).
The incubation was started by the addition of 100 μl (50 μg protein) membrane homogenate to a solution of 200 μl incubation buffer, 100 μl ^3H-spiperone (90 Ci/mmol, Amersham, diluted in borosilicate glass vial to 0.25 nM final conc.) and 100 μl (30 μM final conc.) of fresh dopamine (Research Biochemicals Inc., light protected and dissolved in incubation buffer) in 96-well polypropylene plates (1 mL per well). The plates were vortexed and incubated at room temperature for 90 minutes at which time the binding reaction was stopped by filtering. The filters were washed and counted using the same procedure as in the total binding assay described above to give the nonspecific binding value (NSB).
The incubation was started by the addition, in 96-well polypropylene plates (1 mL per well), of 100 μl (50 μg protein) membrane homogenate to a solution of 200 μl incubation buffer, 100 μl (0.25 nM final conc.) ^3H-spiperone (90 Ci/mmol, Amersham, diluted in borosilicate glass vial) and 100 μl of test compound that was prepared from 1 mM stock dissolved in DMSO and stored at −20° C. in polypropylene cryogenic storage vials until dilution in incubation buffer in 96-well polypropylene plates. The plates were vortexed and incubated at room temperature for 90 minutes at which time the binding reaction was stopped by filtering. The filters were washed and counted using the same procedure as in the total binding assay described above to give the displacement binding value (BD).
The test compounds were initially assayed at 1 and 0.1 μM and then at a range of concentrations chosen such that the middle dose would cause about 50% inhibition of ^3H-spiperone binding. Specific binding in the absence of test compound (B0) was the difference of total binding (BT) minus non-specific binding (NSB) and similarly specific binding (in the presence of test compound) (B) was the difference of displacement binding (BD) minus non-specific binding (NSB). […]

MK801 Stereotypy = test: MK-801 Stereotypy in Mice; format: in vivo; conditions: Mus musculus, read-out: Antagonism of MK801 Stereotypy % Inhib. @ 20 mg/kg (route)
Protocol: Mk-801 dose-dependently induces characteristic stereotypy marked by locomotion and falling behavior. This MK-801 induced behavior can be antagonized by novel neuroleptic agents. This assay can also assess time course effects following drug administration.
CD-1 or C57 male mice are individually placed in activity boxes (8 mice/drug) and allowed to acclimate for 60 minutes. The mice are then administered test compounds either i.p., s.c., or p.o., at 15, 30, or 60 minutes prior to MK-801 (0.2 mg/kg) administration. Mice are observed for the presence of locomotion and falling behaviors 15 minutes following MK-801. For the duration of action studies the test compounds are administered i.p., s.c., or p.o., at 30, 60, 120, 180, and 240 minutes prior to MK-801 administration.

[2] = biological target: human D4 receptor with seven repeat units (D4.7 variant); conditions: read-out: EC50 of dopamine; cited from earlier work
[3] = 20 mg/kg ip, mice, MK-801 0.2 mg/kg
[4] = 20 mg/kg sc, mice, MK-801 0.2 mg/kg
[5] = 20 mg/kg po, mice, MK-801 0.2 mg/kg

Structure (SMILES) | Ki [1] [nM] | melting point [°C] | also measured
O[C@H](CNCc1cccs1)COc1cccc(-c2noc3ccsc23)c1 [Compound 6, (2R)-1-(3-thieno[2,3-d]isoxazol-3-yl-phenoxy)-3-[(thiophen-2-ylmethyl)amino]propan-2-ol L-tartrate] | 12.6 |  | inhibition in vivo at 20 mg/kg (MK801 Stereotypy; [3]): 25%
NCCc1ccc(O)c(O)c1 [dopamine] |  |  | EC50 [2]: 40 nM
Cc1ccc(CNC[C@](C)(O)COc2cccc(-c3noc4ccsc34)c2)cc1 [Example 58, hydrochloride] |  |  | inhibition at 1 µM [1]: 100%; inhibition in vivo at 20 mg/kg (MK801 Stereotypy; po): 37.5%
C[C@@](O)(CNCc1ccc(F)cc1)COc1cccc(-c2noc3ccsc23)c1 [Example 15] | 11 |  | inhibition in vivo at 20 mg/kg (MK801 Stereotypy; [4]): 50%
OC(CNC[C@@H](O)COc1cccc(-c2noc3ccsc23)c1)c1ccccc1 (stereo partly drawn) [Example 27] | 131 |  | inhibition in vivo at 20 mg/kg (MK801 Stereotypy; [4]): 75%
C[C@@](O)(CNCc1cccs1)COc1cccc(-c2noc3ccsc23)c1.O=C(O)/C=C\C(=O)O [Compound 5, (2R)-2-methyl-1-(3-thieno[2,3-d]isoxazol-3-yl-phenoxy)-3-[thienophen-2-ylmethyl)-amino-propan-2-ol maleate] |  | 51 to 52 | inhibition in vivo at 20 mg/kg (MK801 Stereotypy; [3]): 37.5%
COc1ccc2[nH]nc(N3CCN(C[C@@H](O)COc4cccc(-c5noc6ccsc56)c4)CC3)c2c1 [Example 12, (2R)-1-[4-(5-methoxy-1H-indazol-3-yl)-piperazin-1-yl]-3-(3-thieno[2,3-d]isoxazol-3-yl-phenoxy)-propan-2-ol] |  | 84 to 86 | 
O[C@@H](COc1cccc(-c2noc3ccsc23)c1)CN1CCN(c2n[nH]c3cc(F)ccc23)CC1 [Example 11, (2R)-1-[4-(6-fluoro-1H-indazol-3-yl)-piperazin-1-yl]-3-(3-thieno[2,3-d]isoxazol-3-yl-phenoxy)-propan-2-ol] |  | 97 to 99 | 
C[C@](O)(CNCc1ccccc1)COc1cccc(-c2noc3ccsc23)c1 [Compound 3, (2S)-(+)-1-benzylamino-2-methyl-3-(3-thieno[2,3-d]isoxazol-3-yl-phenoxy)propan-2-ol maleate] | 3.3 |  | inhibition in vivo at 20 mg/kg (MK801 Stereotypy; [3]): 37.5%
O[C@@H](COc1cccc(-c2noc3ccsc23)c1)CN1CCN(c2cccc(Cl)c2)CC1 [Example 47, (2R)-1-[4-(3-chlorophenyl)piperazin-1-yl]-3-(3-thieno[2,3-d]isoxazol-3-yl-phenoxy)-propan-2-ol] |  | 118 to 120 | 
C[C@@](O)(CNCc1ccccc1)COc1cccc(-c2noc3ccsc23)c1 [Compound 4, (2R)-(−)-1-benzylamino-2-methyl-3-(3-thieno[2,3-d]isoxazol-3-yl-phenoxy)propan-2-ol maleate] | 37.7 |  | inhibition in vivo at 20 mg/kg (MK801 Stereotypy; [3]): 12.5%
O[C@@H](COc1cccc(-c2noc3ccsc23)c1)CN1CCN(Cc2ccc3c(c2)OCO3)CC1 (as salt: hydrochloride) [Example 51, (2R)-1-(4-benzo[1,3]dioxol-5-ylmethyl-piperazin-1-yl)-3-(3-thieno[2,3-d]isoxazol-3-yl-phenoxy)propan-2-ol] |  | 225 to 227 | 
O[C@H](CNCc1ccsc1)COc1cccc(-c2noc3ccsc23)c1 [Example 9] | 7.6 |  | inhibition in vivo at 20 mg/kg (MK801 Stereotypy; [3]): 12%
C[C@](O)(CNCc1ccc(Cl)c(Cl)c1)COc1cccc(-c2noc3ccsc23)c1 [Example 54] | 13 |  | inhibition in vivo at 20 mg/kg (MK801 Stereotypy; [5]): 62.5%
O[C@@H](COc1cccc(-c2noc3ccsc23)c1)CN1CCN(c2ccccc2Cl)CC1 [Example 46, (2R)-1-[4-(2-chlorophenyl)piperazin-1-yl]-3-(3-thieno[2,3-d]isoxazol-3-yl-phenoxy)-propan-2-ol] |  | 83 to 86 | 
C[C@](O)(CNCc1ccccc1Cl)COc1cccc(-c2noc3ccsc23)c1 [Example 53] |  |  | inhibition at 1 µM [1]: 96%; inhibition in vivo at 20 mg/kg (MK801 Stereotypy; [5]): 50%
O[C@@H](COc1cccc(-c2noc3ccsc23)c1)CN1CCN(c2ccccc2)CC1 [Example 49, (2R)-1-(4-phenylpiperazin-1-yl)-3-(3-thieno[2,3-d]isoxazol-3-yl-phenoxy)propan-2-ol] |  | 127 to 129 | 
